Patent US8557873B2, “Method for treating septic shock or endotoxemia” (priority 2009, dated 2013)
“Also recorded” adds a separate entry of the source.

Legend:
[1] = system: E. coli lipopolysacharide (LPS) induced septic shock/endotoxemia in male balb/c mice; experiment: Survival of mice injected with E. coli LPS, treated 30 minutes later with compound i.p., observed three days; format: in vivo; settings: for Survival rate (%) / Survival/total mice: 30 min after LPS 0.4 mg i.p., three days; for Therapeutic effect compared to the other compounds or to recombinant APC: comparison in words; for Concentration with the best therapeutic effect: concentration in 1 ml injected i.p., effect goes down above it; for Best treatment volume: per body weight of the mouse
Method: The mice used in this invention were male balb/c having body weights around 20 g, five to six weeks old. Each mouse was intraperitoneally injected with E. coli lipopolysacharide (LPS) 0.4 mg in 1 ml sterile saline. After 30 minutes, each mouse was intraperitoneally injected with one of the following compounds: amylamine, isoamylamine, 2-methylbutamine, n-methylbutamine. The above compounds were dissolved in 1 ml sterile saline to be pH 7.4. The E. coli LPS was serotype 0111:B4 obtained from Sigma (St. Louis, Mo.).
Each mouse was intraperitoneally injected with E. coli lipopolysaccharide (LPS) 0.4 mg in 1 ml saline, and was then injected with 1 ml amylamine (represented by SS1) of different concentrations (0%, 0.1%, and 0.3%) 30 minutes later. […] The therapeutic effect goes down if the dose above 0.3%. The best treatment volume of amylamine is 0.15 ml/Kg body weight of the mouse.
Each mouse was intraperitoneally injected with E. coli lipopolysacharide (LPS) 0.4 mg in 1 ml saline, and then injected with 1 ml isoamylamine (represented by SS2) of different concentrations (0%, 0.1%, and 0.3%) 30 minutes later. […] The therapeutic effect goes down if the dose above 0.1%. The best treatment volume of isoamylamine is 0.05 ml/kg body weight of the mouse.
Each mouse was intraperitoneally injected with E. coli lipopolysacharide (LPS) 0.4 mg in 1 ml saline, and then injected with 1 ml 2-methylbutamine (represented by SS3) of different concentrations (0%, 0.1%, and 0.3%) 30 minutes later. […] The therapeutic effect goes down if the dose above 0.1%. The best treatment volume of 2-methylbutamine is 0.05 ml/kg body weight of the mouse.
Each mouse was intraperitoneally injected with E. coli lipopolysacharide (LPS) 0.4 mg in 1 ml saline, and then 30 minutes later injected with 1 ml n-methylbutamine (represented by SS9) of different concentrations (0%, 0.1%, 0.3% and 1.0%) 30 minutes later. […] The therapeutic effect goes down if the dose above 1.0%. The best treatment volume of n-methylbutamine is 0.5 ml/kg body weight of the mouse. The dose of SS9 above 1.0% is toxic to mouse.

[2] = system: patients with severe sepsis; settings: cited from earlier work

| Molecule | Survival rate (%) ([1]; 0.1% in 1 ml i.p.) | Survival/total mice ([1]; 0.1% in 1 ml i.p.) | Survival rate (%) ([1]; 0.3% in 1 ml i.p.) | Survival/total mice ([1]; 0.3% in 1 ml i.p.) | Therapeutic effect compared to the other compounds or to recombinant APC [1] | Concentration with the best therapeutic effect [1] | Best treatment volume [1] | Survival rate (%) ([1]; 1.0% in 1 ml i.p.) | Survival/total mice ([1]; 1.0% in 1 ml i.p.) | Dose toxic to mouse ([1]; concentration in 1 ml i.p.) | Absolute decrease in mortality [2] |
| --- | --- | --- | --- | --- | --- | --- | --- | --- | --- | --- | --- |
| CC(C)CCN [SS2, isoamylamine] | 83% | 15/18 | 50% | 9/18 | more significant therapeutic effect; also recorded: higher therapeutic effects and decreased mortality over recombinant APC | 0.1% | 0.05 mL/kg |  |  |  |  |
| CCCCNC [SS9, n-methylbutamine] | 39% | 5/13 | 54% | 7/13 | higher therapeutic effects and decreased mortality over recombinant APC | 1.0% | 0.5 mL/kg | 62% | 8/13 | above 1.0% |  |
| CCCCCN [SS1, amylamine] | 18% | 3/17 | 53% | 9/17 | higher therapeutic effects and decreased mortality over recombinant APC | 0.3% | 0.15 mL/kg |  |  |  |  |
| CCC(C)CN (centres unmarked) [SS3, 2-methylbutamine] | 53% | 16/30 | 33% | 10/30 | higher therapeutic effects and decreased mortality over recombinant APC | 0.1% | 0.05 mL/kg |  |  |  |  |
| activated protein C |  |  |  |  |  |  |  |  |  |  | 6.1% |
